This is an account of results in paper PMC8694152, “Mutasynthetic Production and Antimicrobial Characterization of Darobactin Analogs” (Microbiology Spectrum, 2021).

For test [1], the system named is Klebsiella pneumoniae DSM30104. The test is classed as cell-based. As to conditions: CAMHII, 18 h, at least 85 % growth inhibition. The protocol: (§1) For details, see the supplemental material.
(§2) 146 Mueller Hinton 2 broth (CAMHII). Darobactins were screened in 12 concentrations
(§3) The same concentrations were tested for
(§4) 148 rifampicin, tetracycline and gentamycin as positive controls. For tetracycline resistant
(§5) 151 Bacteria suspension without supplemented standard antibiotics or Darobactin
(§6) 152 was used as negative control.
(§7) 154 spectrophotometer at 600 nm. […]
(§8) 172 performed at least in triplicate.

The subject of test [2] is E. coli K0416. The test is classed as cell-based, Escherichia coli. As to conditions: CAMHII, 18 h, at least 85 % growth inhibition. The protocol: as §1, §2, §3, §4, §5, §6, §7
(§9) 171 control. After 24 h incubation, the MIC was determined. All MIC assays were
as §8

Test [3] relates to E. coli MMGI1. The test is classed as cell-based, Escherichia coli. As to conditions: CAMHII, 18 h, at least 85 % growth inhibition. The protocol: as §1, §2, §3, §4, §5, §6, §7, §9, §8
The test system of test [4] is E. coli NRZ14408. The test is classed as cell-based, Escherichia coli. The note with it: CAMHII, 18 h, at least 85 % growth inhibition. The protocol: as §1, §2, §3, §4, §5, §6, §7, §9, §8
The test system of test [5] is E. coli Survcare052. In kind it is cell-based, Escherichia coli. The note with it: CAMHII, 18 h, at least 85 % growth inhibition. As to the method:
as §1, §2, §3, §4, §5, §6, §7, §9, §8

The subject of test [6] is Acinetobacter baumannii ATCC 19606. In kind it is cell-based. The note with it: CAMHII, 18 h, at least 85 % growth inhibition. The protocol: as §1, §2, §3, §4, §5, §6, §7, §9, §8
The subject of test [7] is Escherichia coli ATCC 35218. In kind it is cell-based. As to conditions: CAMHII, 18 h, at least 85 % growth inhibition. The protocol: as §1, §2, §3, §4, §5, §6, §7, §9, §8
Test [8] concerns Salmonella enterica ATCC 13076. The test is classed as cell-based. The note with it: CAMHII, 18 h, at least 85 % growth inhibition. As to the method: as §1, §2, §3, §4, §5, §6, §7, §9, §8
Test [9] deals with panel of clinically relevant Gram-negative pathogens. Nature of the test: MIC comparison with DAR A over the panel of test strains. The test is classed as cell-based. As to conditions: whole panel of test strains (Table 2). As to the method:
Therefore, additional clinical isolates of A. baumannii were tested.
as §1, §2, §3, §4, §5, §6
154 spectrophotometer at 600 nm. The MIC was defined as the minimum concentration
157 dilution as well, but without shaking. In aerobic conditions, overnight cultures of K.
Exponential cultures (OD 600 of
163 of test compound solutions diluted serially two-fold. After overnight incubation at 37 °C,
The MIC against Salmonella
167 conditions. Overnight cultures grown in brain–heart infusion (BHI) broth,
as §9, §8

Test [10] relates to various E. coli strains. Nature of the test: MIC comparison with DAR A against E. coli strains. In kind it is cell-based, Escherichia coli.
Text: New antibiotics, such as darobactin, with potency against these pathogens are desperately needed. […] This can be explained by the fact that this is the only derivative investigated not ending with the amino acid phenylalanine, which represents the most frequent amino acid of known and putative β signals from bacterial OM proteins ([7]). Therefore, DAR F would not block the β signal binding site and, thus, would not inhibit the function of BamA. […] Since Ser2 should eliminate the side chain interactions existing between Asn2 and Lys808 and Asn427 of the BamA β1 strand, it is likely that this greatly reduces DAR E’s affinity for the target and, thus, reduces its potency. In contrast to DAR A, DAR D carries an arginine in position 5 instead of lysine. If DAR A is bound to BamA, the Lys5 side chain points away from BamA, thereby enabling interaction with the negatively charged phosphate groups of phosphatidylglycerol and cardiolipin lipids ([7]). Supposedly, arginine could act similarly in the place of lysine, as arginine attracts more phosphate than lysine in membranes and can form more hydrogen bonds with phosphate clusters than lysine ([16]). Arginine is also capable of cardiolipin binding, a further important aspect of DAR and BamA binding ([17]).
as §1
146 Mueller Hinton 2 broth (CAMHII). Darobactins were screened in 12 concentrations […]

Molecules are shown by their SMILES. Values after ≈ are worked out from the molar mass of the structure shown. Values joined by “and” are separate entries in the source; they are usually repeats but may differ in a detail not shown here. Equal values may be shown once. A value given as a limit tells only on which side of the number the result lay.

What is called MIC is the lowest concentration that inhibits growth of the organism. High values mean a less susceptible organism, low ones a more susceptible organism. As to `N=C(N)NCCC1c2ccc3c(c[nH]c3c2)C2Oc3cccc4c(c[nH]c34)C[C@H](N)C(=O)N[C@@H](CC(N)=O)C(=O)N[C@@H]2C(=O)N[C@@H](CO)C(=O)N[C@@H]1C(=O)N[C@@H](CO)C(=O)N[C@@H](Cc1ccccc1)C(=O)O` (stereo partly shown) [DAR D, darobactin D], the MIC in test [1] was 64 mg/L (≈ 64.4 µM); in test [2] it was 32 mg/L (≈ 32.2 µM); in test [3], 64 mg/L (≈ 64.4 µM); in [4], 64 mg/L (≈ 64.4 µM); in [5], above 64 mg/L; in [6], above 64 mg/L. The MIC in test [7] and in test [8] was 64 mg/L (≈ 64.4 µM) throughout. Further, the “fold-higher MIC values than DAR A” value in test [9] is 8- to 16 fold and 16 fold.

As for `NCCCC1c2ccc3c(c[nH]c3c2)C2Oc3cccc4c(c[nH]c34)C[C@H](N)C(=O)N[C@@H](CO)C(=O)N[C@@H]2C(=O)N[C@@H](CO)C(=O)N[C@@H]1C(=O)N[C@@H](CO)C(=O)N[C@@H](Cc1ccccc1)C(=O)O` (stereo partly shown) [DAR E, darobactin E], the minimal inhibitory concentration (MIC) in [1] was 32 mg/L (≈ 34.1 µM); in test [2], 32 mg/L (≈ 34.1 µM); in test [3] it was 32 mg/L (≈ 34.1 µM); in [4], 32 mg/L (≈ 34.1 µM); in test [5] it was 64 mg/L (≈ 68.2 µM); in [6], above 64 mg/L. Besides, the MIC in test [7] and in [8] was 32 mg/L (≈ 34.1 µM) throughout. For the same molecule, the “fold-higher MIC values than DAR A” value in [9] is 8- to 16 fold. Also, in test [10], the “fold decrease in potency compared to DAR A” value is 8- to 16 fold.
